In ChEMBL document CHEMBL1777733, “The discovery and structure-activity relationships of pyrano[3,4-b]indole-based inhibitors of hepatitis C virus NS5B polymerase” (Bioorg Med Chem Lett, 2011):

What was measured:
[1] = Inhibition of HCV BK NS5B polymerase after 15 mins; design: species or system Hepatitis C virus (isolate BK)
[2] = Inhibition of HCV BB7 NS5B polymerase after 15 mins; design: species or system Hepacivirus hominis
Hepatitis C virus [3] = test: Antiviral activity against HCV genotype 1b infected in human Huh7 cells assessed as reduction of viral RNA level after 3 days by RT-PCR method; assay type: functional, organism-based, Hepacivirus hominis; settings: Huh-7, 72 h
Hepatitis C virus [4] = test: Antiviral activity against HCV genotype 1b infected in human Huh7 cells assessed as decrease in viral NS5A levels after 3 days by ELISA; assay type: functional, organism-based, Hepacivirus hominis; settings: Huh-7, 72 h

| Compound | IC50 [1] [nM] | IC50 [2] [nM] | EC50 (Hepatitis C virus [3]) [nM] | EC50 (Hepatitis C virus [4]) [nM] |
| --- | --- | --- | --- | --- |
| CCC[C@]1(CC(=O)O)OCCc2c1[nH]c1c(C)c(OCc3cc(C)on3)cc(C#N)c21 | 6 | 8 | – | 480 |
| CCC[C@]1(CC(=O)O)OCCc2c1[nH]c1c(C)c(OCc3cc(C)n(C)n3)cc(C#N)c21 | 30 | 20 | – | 760 |
| CCC[C@]1(CC(=O)O)OCCc2c1[nH]c1c(C)c(OC[C@@H](C)n3cccn3)cc(C#N)c21 | 7 | 7 | – | 340 |
| CC[C@H](C)[C@]1(CC(=O)O)OCCc2c1[nH]c1c(C)c(OC[C@H](C)n3cccn3)cc(C#N)c21 | 2 | 2 | 20 | – |
| CCCC1(CC(=O)O)OCCc2c1[nH]c1c(C)c(O)cc(C#N)c21 (racemic) | 260 | 200 | – | 47000 |
| CCCC1(CC(=O)O)OCCc2c1[nH]c1c(C)c(OC)cc(C#N)c21 (racemic) | 360 | 130 | – | 20000 |
| CCCOc1cc(C#N)c2c3c([nH]c2c1C)C(CCC)(CC(=O)O)OCC3 (racemic) | 70 | 70 | – | 2900 |
| CCCC1(CC(=O)O)OCCc2c1[nH]c1c(C)c(OC(C)C)cc(C#N)c21 (racemic) | 480 | 220 | – | 19700 |
| CCCC1(CC(=O)O)OCCc2c1[nH]c1c(C)c(OCCOC)cc(C#N)c21 (racemic) | 40 | 90 | – | 4900 |
| CCCC1(CC(=O)O)OCCc2c1[nH]c1c(C)c(OCCN3CCCC3)cc(C#N)c21 (racemic) | 1100 | 950 | – | 26000 |

More lines, now with the values ahead:

| IC50 [1] [nM] | IC50 [2] [nM] | EC50 (Hepatitis C virus [3]) [nM] | EC50 (Hepatitis C virus [4]) [nM] | Compound |
| --- | --- | --- | --- | --- |
| 12 | 3 | 20 | – | CC[C@H](C)[C@]1(CC(=O)O)OCCc2c1[nH]c1c(C)c(OCCn3cccn3)cc(C#N)c21 |
| 5 | 5 | – | – | CCC[C@]1(CC(=O)O)OCCc2c1[nH]c1c(C)c(OCCn3cccn3)cc(C#N)c21 |
| 3 | 3 | – | 120 | CCC[C@]1(CC(=O)O)OCCc2c1[nH]c1c(C)c(OC[C@H](C)n3cccn3)cc(C#N)c21 |
| 300 | 400 | – | – | CCC[C@]1(CC(=O)O)OCCc2c1[nH]c1c(C)ccc(C#N)c21 |
| 1300 | 970 | – | > 100000 | CCCC1(CC(=O)O)OCCc2c1[nH]c1c(C)c(C(=O)NC)cc(C#N)c21 (racemic) |
| 16000 | 20000 | – | > 100000 | CCCC1(CC(=O)O)OCCc2c1[nH]c1c(C)c(C(=O)N(C)C)cc(C#N)c21 (racemic) |
| 3000 | 2000 | – | > 100000 | CCCNC(=O)c1cc(C#N)c2c3c([nH]c2c1C)C(CCC)(CC(=O)O)OCC3 (racemic) |
| 980 | 670 | – | > 100000 | CCCC1(CC(=O)O)OCCc2c1[nH]c1c(C)c(C(=O)NCc3ccccc3)cc(C#N)c21 (racemic) |
| 540 | 300 | – | 56000 | CCCC1(CC(=O)O)OCCc2c1[nH]c1c(C)c(C(=O)NCc3ccc4c(c3)OCO4)cc(C#N)c21 (racemic) |
| 1200 | 640 | – | > 100000 | CCCC1(CC(=O)O)OCCc2c1[nH]c1c(C)c(C(=O)NCCc3ccccn3)cc(C#N)c21 (racemic) |
| 860 | 560 | – | > 100000 | CCCC1(CC(=O)O)OCCc2c1[nH]c1c(C)c(C(=O)NCCc3ncc[nH]3)cc(C#N)c21 (racemic) |
| 110 | 70 | – | 3500 | CCCC1(CC(=O)O)OCCc2c1[nH]c1c(C)c(OCC)cc(C#N)c21 (racemic) |
| 20 | 20 | – | 390 | CCCC1(CC(=O)O)OCCc2c1[nH]c1c(C)c(OCc3ccccn3)cc(C#N)c21 (racemic) |
| 310 | 230 | – | 8300 | CCCC1(CC(=O)O)OCCc2c1[nH]c1c(C)c(OCCc3ccncc3)cc(C#N)c21 (racemic) |
| 19 | 20 | – | 1600 | CCCC1(CC(=O)O)OCCc2c1[nH]c1c(C)c(OCc3cnccn3)cc(C#N)c21 (racemic) |
